Measured values taken from patent publication US20250171420A1 (Monte Rosa Therapeutics, Inc., priority 2022, published 2025).

Columns and labels:
[1] = target: CRBN/DDB1 (Homo sapiens, UniProt Q96SW2); test: HTRF binding assay (displacement of Cy5-thalidomide probe from CRBN/DDB1); details: CRBN/DDB1 2.5 nM, Cy5-Thalidomide 100 nM, 30 min; geometric mean; read-out: HTRF_Thali_Disp_DR_geo_IC50
Outline: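 HTRF displacement of Cy5-thalidomide (100 nM) from His-tagged CRBN/DDB1 (2.5 nM) with anti-His Tb cryptate in 20 mM HEPES, 20 mM NaCl, 0.2 mM TCEP, 0.2 mM EDTA, 0.005% Tween20. 10-point 1:3 series, 30 min ambient. 665/620 nm ratio fitted 4-parameter for IC50; Ki by Cheng-Prusoff from geometric-mean IC50.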

[2] = target: T1, CK1α (Homo sapiens, UniProt P48729+Q96SW2); test: Western blot of CK1α levels in HEK293 and HEK293 CRBN knock out cells; type: cell-based; details: 0.1, 1, 10 μM, 24 hours, FIG. 1
T1 construct: HEK293 clonal lines with CRISPR KI HiBiT tag on CSNK1A1
T1 sequence (P48729 whole entry): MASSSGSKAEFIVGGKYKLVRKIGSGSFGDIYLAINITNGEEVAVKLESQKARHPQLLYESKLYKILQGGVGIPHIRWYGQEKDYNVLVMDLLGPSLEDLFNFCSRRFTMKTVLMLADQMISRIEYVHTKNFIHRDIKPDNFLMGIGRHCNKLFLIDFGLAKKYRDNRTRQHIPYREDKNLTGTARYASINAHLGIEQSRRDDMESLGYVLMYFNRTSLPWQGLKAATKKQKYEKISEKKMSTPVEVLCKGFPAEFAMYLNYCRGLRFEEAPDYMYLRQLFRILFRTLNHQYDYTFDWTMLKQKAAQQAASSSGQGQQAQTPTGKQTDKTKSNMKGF
T1 sequence (Q96SW2 whole entry): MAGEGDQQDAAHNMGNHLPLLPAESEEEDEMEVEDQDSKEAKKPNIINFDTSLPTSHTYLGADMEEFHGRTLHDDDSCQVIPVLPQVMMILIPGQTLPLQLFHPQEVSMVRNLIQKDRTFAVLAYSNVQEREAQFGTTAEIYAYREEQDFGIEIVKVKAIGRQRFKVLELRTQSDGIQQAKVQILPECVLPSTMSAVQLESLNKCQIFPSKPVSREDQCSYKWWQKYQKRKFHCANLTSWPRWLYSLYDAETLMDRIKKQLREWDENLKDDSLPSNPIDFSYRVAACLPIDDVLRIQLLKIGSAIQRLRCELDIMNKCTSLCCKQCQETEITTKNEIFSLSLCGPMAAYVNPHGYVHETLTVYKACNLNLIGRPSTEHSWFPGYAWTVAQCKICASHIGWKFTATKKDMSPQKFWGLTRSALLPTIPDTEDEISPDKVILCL
T1 sequence (Q16531 2-1140 partner limits assumed): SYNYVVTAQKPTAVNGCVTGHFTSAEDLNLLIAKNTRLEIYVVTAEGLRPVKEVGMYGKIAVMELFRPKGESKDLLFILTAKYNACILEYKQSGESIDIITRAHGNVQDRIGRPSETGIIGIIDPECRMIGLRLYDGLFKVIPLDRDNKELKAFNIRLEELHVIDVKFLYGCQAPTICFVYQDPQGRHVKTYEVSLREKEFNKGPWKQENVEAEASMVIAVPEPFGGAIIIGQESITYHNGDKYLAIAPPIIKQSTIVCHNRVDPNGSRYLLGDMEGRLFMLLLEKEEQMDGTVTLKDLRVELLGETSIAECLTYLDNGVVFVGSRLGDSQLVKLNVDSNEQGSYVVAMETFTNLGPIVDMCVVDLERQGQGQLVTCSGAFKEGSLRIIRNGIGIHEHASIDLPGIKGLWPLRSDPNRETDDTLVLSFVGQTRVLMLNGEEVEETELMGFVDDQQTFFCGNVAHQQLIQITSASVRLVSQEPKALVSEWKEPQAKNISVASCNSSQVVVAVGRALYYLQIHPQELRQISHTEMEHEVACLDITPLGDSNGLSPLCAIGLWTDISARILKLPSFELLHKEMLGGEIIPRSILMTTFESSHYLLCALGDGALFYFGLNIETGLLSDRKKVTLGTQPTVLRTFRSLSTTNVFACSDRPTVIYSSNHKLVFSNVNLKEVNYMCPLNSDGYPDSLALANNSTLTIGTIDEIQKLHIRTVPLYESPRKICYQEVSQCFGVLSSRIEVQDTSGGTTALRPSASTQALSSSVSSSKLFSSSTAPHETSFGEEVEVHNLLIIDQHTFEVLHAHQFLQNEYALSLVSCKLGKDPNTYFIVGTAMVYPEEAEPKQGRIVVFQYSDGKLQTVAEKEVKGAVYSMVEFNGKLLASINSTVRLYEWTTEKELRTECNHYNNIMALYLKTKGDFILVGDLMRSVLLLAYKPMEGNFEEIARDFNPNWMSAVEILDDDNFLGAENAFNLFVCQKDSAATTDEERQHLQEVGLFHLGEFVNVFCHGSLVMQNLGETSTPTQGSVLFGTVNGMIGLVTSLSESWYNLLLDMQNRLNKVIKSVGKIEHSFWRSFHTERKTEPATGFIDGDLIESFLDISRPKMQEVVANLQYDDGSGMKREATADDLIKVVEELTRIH
Description: HEK293 cell line was purchased from ATCC (CRL-1573). HEK293 CRBN knock out (k/o) cell line (B2) was generated internally using CRISPR/Cas9 method and clonally expanded. Cells were plated at 2×10^5 cells per well in 6-well tissue culture plates (VWR) in 2 ml of DMEM media (Gibco) containing 10% FBS (Gibco), and incubated for 16 hours at 37° C., 5% CO2. Compounds were added to final concentration of 0.1 μM, 1 μM, 10 μM (DMSO concentration was kept constant at 0.1%), following incubation at 37° C., 5% CO2 for additional 24 hours. Cell lysis was performed using RIPA buffer (Pierce) containing Halt™ Protease Inhibitor Cocktail (ThermoFisher Scientific). Lysates were boiled at 95° C. for 10 minutes and 12 μg of protein lysate per sample was resolved by SDS-PAGE using 12% gels (BioRad) and transferred to nitrocellulose membrane (BioRad). Membranes were blocked using LI-COR blocking buffer (LI-COR) at room temperature for 1 hour, followed by overnight incubation with rabbit anti-CK1α (Abcam ab206652), rabbit anti-CRBN (Sigma HPA045910) and mouse anti-α-tubulin (Sigma T9026) antibodies at 4° C. Secondary antibodies (LI-COR) were added for 1 hour at room temperature, followed by imaging with LI-COR imaging system Odyssey® CLx.

Sequence of CRBN/DDB1 (Q96SW2 whole entry, species assumed): as the sequence (Q96SW2 whole entry) above
Sequence of CRBN/DDB1 (Q16531 whole entry partner, species assumed): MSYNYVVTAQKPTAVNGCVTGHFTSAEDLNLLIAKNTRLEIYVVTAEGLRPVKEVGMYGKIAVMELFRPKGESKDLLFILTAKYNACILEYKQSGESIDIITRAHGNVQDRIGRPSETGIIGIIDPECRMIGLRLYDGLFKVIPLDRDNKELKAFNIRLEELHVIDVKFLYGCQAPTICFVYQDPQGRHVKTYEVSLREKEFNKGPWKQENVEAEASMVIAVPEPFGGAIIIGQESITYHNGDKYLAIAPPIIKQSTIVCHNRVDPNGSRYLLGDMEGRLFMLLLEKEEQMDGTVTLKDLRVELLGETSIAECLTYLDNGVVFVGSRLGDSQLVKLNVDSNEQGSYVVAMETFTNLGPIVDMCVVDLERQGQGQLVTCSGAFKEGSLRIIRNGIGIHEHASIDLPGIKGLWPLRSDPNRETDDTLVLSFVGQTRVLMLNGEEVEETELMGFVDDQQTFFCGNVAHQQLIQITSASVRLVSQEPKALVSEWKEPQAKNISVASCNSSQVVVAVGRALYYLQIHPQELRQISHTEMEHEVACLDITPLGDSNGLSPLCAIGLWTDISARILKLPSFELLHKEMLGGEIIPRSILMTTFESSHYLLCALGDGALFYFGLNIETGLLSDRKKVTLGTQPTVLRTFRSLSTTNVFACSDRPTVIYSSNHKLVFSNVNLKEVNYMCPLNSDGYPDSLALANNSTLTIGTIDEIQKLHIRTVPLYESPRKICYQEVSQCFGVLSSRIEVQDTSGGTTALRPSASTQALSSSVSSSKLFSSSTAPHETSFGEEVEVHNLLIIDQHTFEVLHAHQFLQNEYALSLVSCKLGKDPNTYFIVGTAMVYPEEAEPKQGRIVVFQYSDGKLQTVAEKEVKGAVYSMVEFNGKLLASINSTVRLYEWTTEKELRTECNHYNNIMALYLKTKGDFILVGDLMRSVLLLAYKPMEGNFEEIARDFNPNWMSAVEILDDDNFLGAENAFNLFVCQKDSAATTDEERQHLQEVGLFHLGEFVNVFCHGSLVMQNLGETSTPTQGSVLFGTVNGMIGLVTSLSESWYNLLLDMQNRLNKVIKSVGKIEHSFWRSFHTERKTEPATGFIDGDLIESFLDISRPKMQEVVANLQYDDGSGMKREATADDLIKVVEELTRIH

C[C@@H]1Cc2ccccc2N1C(=O)Nc1ccc2c(c1)CN(C1CCC(=O)NC1=O)C2=O (stereo partly drawn) [Compound 102, (2R)—N-(2-(2,6-dioxopiperidin-3-yl)-1-oxoisoindolin-5-yl)-2-methylindoline-1-carboxamide]
IC50 [1]: 100 to 1000 nM
effect on CK1a levels in HEK293 cell line ([2]; HEK293, cereblon present): decreases CK1a levels
effect on CK1a levels in cereblon (CRBN) knock-out HEK293 cell line ([2]; HEK293 CRBN knock-out): no effect on CK1a levels
